Experiments:
Type in all cases: in vivo
corn (Zea mays) = assay: Test A pre-/postemergence plant response
In short: (§1)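 Injury scores (0, no effect; 100, complete control) come from visual comparison with untreated controls roughly ten days post-treatment. Test chemicals in a surfactant-containing non-phytotoxic solvent were applied as a directed soil spray preemergence and to one- to two-leaf seedlings postemergence.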

[1] = test system: barnyardgrass (Echinochloa crus-galli); assay: Test A pre-/postemergence plant response
In short: as §1

[2] = test system: pigweed (Amaranthus retroflexus); assay: Test A pre-/postemergence plant response
In short: as §1

[3] = test system: wheat (Triticum aestivum); assay: Test A pre-/postemergence plant response
In short: as §1

[4] = test system: morningglory (Ipomoea spp.); assay: Test A pre-/postemergence plant response
In short: as §1

[5] = test system: velvetleaf (Abutilon theophrasti); assay: Test A pre-/postemergence plant response
In short: as §1

[6] = test system: large crabgrass (Digitaria sanguinalis); assay: Test A pre-/postemergence plant response
In short: as §1

[7] = test system: giant foxtail (Setaria faberii); assay: Test A pre-/postemergence plant response
In short: as §1

rice (Oryza sativa) = assay: Test B flooded paddy test; conditions: for Plant response rating, Flood, Rice: 250 g ai/ha, flooded paddy test, visual rating on 0 to 100 scale (0 no effect, 100 complete control) after 13 to 15 days; for Plant response rating, Rice: Flood (flooded paddy test), 13 to 15 days; for Rice plant response rating: Flood, scale 0 to 100 (0 no effect, 100 complete control)
In short: (§2)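 Greenhouse-held for 13 to 15 days, treated pots were compared visually with controls and scored 0–100 (0, no effect). Treatment had been made into paddy water kept at 3 cm above the soil, with plants at the 2-leaf stage.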

[8] = test system: ducksalad (Heteranthera limosa); assay: Test B flooded paddy test; conditions: for Plant response rating, Flood, Ducksalad: 250 g ai/ha, flooded paddy test, visual rating on 0 to 100 scale (0 no effect, 100 complete control) after 13 to 15 days; for Plant response rating, Ducksalad: Flood (flooded paddy test), 13 to 15 days; for Ducksalad plant response rating: Flood, scale 0 to 100 (0 no effect, 100 complete control)
In short: as §2

[9] = test system: barnyardgrass (Echinochloa crus-galli); assay: Test B flooded paddy test; conditions: for Plant response rating, Flood, Barnyardgrass: 250 g ai/ha, flooded paddy test, visual rating on 0 to 100 scale (0 no effect, 100 complete control) after 13 to 15 days; for Plant response rating, Barnyardgrass: Flood (flooded paddy test), 13 to 15 days; for Barnyardgrass plant response rating: Flood, scale 0 to 100 (0 no effect, 100 complete control)
In short: as §2

[10] = test system: umbrella sedge (Cyperus difformis); assay: Test B flooded paddy test; conditions: for Plant response rating, Flood, Sedge, Umbrella: 250 g ai/ha, flooded paddy test, visual rating on 0 to 100 scale (0 no effect, 100 complete control) after 13 to 15 days; for Plant response rating, Sedge, Umbrella: Flood (flooded paddy test), 13 to 15 days; for Sedge, Umbrella plant response rating: Flood, scale 0 to 100 (0 no effect, 100 complete control)
In short: as §2

[11] = Postemergence, 125 g ai/ha, 0 to 100 scale where 0 is no effect and 100 is complete control
[12] = Postemergence, 500 g ai/ha, 0 to 100 scale, 0 = no effect, 100 = complete control, approx. ten days
[13] = Preemergence, 125 g ai/ha, 0 to 100 scale, 0 = no effect, 100 = complete control
[14] = Preemergence, 500 g ai/ha, visual injury, 0 to 100 scale (0 no effect, 100 complete control), approx. ten days
[15] = 62 g ai/ha, scale of 0 to 100 where 0 is no effect and 100 is complete control
[16] = 125 g ai/ha, scale 0 to 100, 0 is no effect, 100 is complete control
[17] = Postemergence, 125 g ai/ha, visual injury, 0 to 100 scale (0 no effect, 100 complete control), approx. ten days
[18] = 31 g ai/ha, scale of 0 to 100 where 0 is no effect and 100 is complete control
[19] = 62 g ai/ha, scale 0 to 100, 0 is no effect, 100 is complete control
[20] = Postemergence, 500 g ai/ha, visual injury, 0 to 100 scale (0 no effect, 100 complete control), approx. ten days
[21] = Preemergence, 500 g ai/ha, 0 to 100 scale, 0 = no effect, 100 = complete control

With `CCCc1ncc(C(=O)C2=C(O)CCCC2=O)c(=O)n1Cc1ccccc1` [Compound 103] the “Plant response rating, Corn” value (corn (Zea mays); [11]) was 0, the “Plant response rating, Corn” value (corn (Zea mays); [12]) was 20 and the “Plant response rating, Corn” value (corn (Zea mays); [13]) was 0. For the same compound, the “Plant response rating, Corn” value (corn (Zea mays); [14]) was 0, the “Plant response rating, Barnyardgrass” value [1, 11] was 30 and the “Plant response rating, Barnyardgrass” value [1, 12] was 60. For the same compound, the “Plant response rating, Barnyardgrass” value [1, 13] was 0, the “Plant response rating, Barnyardgrass” value [1, 14] was 20 and the “Plant response rating, Pigweed” value [2, 11] was 100. For the same compound, the “Plant response rating, Pigweed” value [2, 12] was 100, the “Plant response rating, Pigweed” value [2, 13] was 90 and the “Plant response rating, Pigweed” value [2, 14] was 100. For the same compound, the “Plant response rating, Wheat” value [3, 11] was 0, the “Plant response rating, Wheat” value [3, 12] was 0 and the “Plant response rating, Wheat” value [3, 13] was 0. For the same compound, the “Plant response rating, Wheat” value [3, 14] was 0, the “Plant response rating, Morningglory” value [4, 11] was 100 and the “Plant response rating, Morningglory” value [4, 12] was 100. The “Plant response rating, Morningglory” value [4, 13] was 20, the “Plant response rating, Morningglory” value [4, 14] was 60 and the “Plant response rating, Velvetleaf” value [5, 11] was 100. For the same compound, the “Plant response rating, Velvetleaf” value [5, 12] was 100, the “Plant response rating, Velvetleaf” value [5, 13] was 60 and the “Plant response rating, Velvetleaf” value [5, 14] was 90. For the same compound, the “Plant response rating, Crabgrass, Large” value [6, 11] was 10, the “Plant response rating, Crabgrass, Large” value [6, 12] was 40 and the “Plant response rating, Crabgrass, Large” value [6, 13] was 40. For the same compound, the “Plant response rating, Crabgrass, Large” value [6, 14] was 80, the “Plant response rating, Foxtail, Giant” value [7, 11] was 0 and the “Plant response rating, Foxtail, Giant” value [7, 12] was 20. The “Plant response rating, Foxtail, Giant” value [7, 13] was 0, the “Plant response rating, Foxtail, Giant” value [7, 14] was 60 and the “Plant response rating, Flood, Rice” value (rice (Oryza sativa)) was 0. For the same compound, the “Plant response rating, Rice” value (rice (Oryza sativa); [15]) was 0, the “Plant response rating, Rice” value (rice (Oryza sativa); [16]) was 0 and the “Rice plant response rating” value (rice (Oryza sativa); 31 g ai/ha) was 0. The “Plant response rating, Flood, Ducksalad” value [8] was 0, the “Plant response rating, Ducksalad” value [8, 15] was 0 and the “Plant response rating, Ducksalad” value [8, 16] was 0. For the same compound, the “Ducksalad plant response rating” value ([8]; 31 g ai/ha) was 0, the “Plant response rating, Flood, Barnyardgrass” value [9] was 0 and the “Plant response rating, Barnyardgrass” value [9, 15] was 0. For the same compound, the “Plant response rating, Barnyardgrass” value [9, 16] was 0, the “Barnyardgrass plant response rating” value ([9]; 31 g ai/ha) was 0 and the “Plant response rating, Flood, Sedge, Umbrella” value [10] was 0. For the same compound, the “Plant response rating, Sedge, Umbrella” value [10, 15] was 0, the “Plant response rating, Sedge, Umbrella” value [10, 16] was 0 and the “Sedge, Umbrella plant response rating” value ([10]; 31 g ai/ha) was 0.

For `CCn1ncc(C(=O)c2cnc(-c3ccccc3)n(-c3ccccc3)c2=O)c1OS(=O)(=O)c1ccc(C)cc1` [Compound 16], the “Corn plant response rating” value (corn (Zea mays); [17]) was 0, the “Plant response rating, Corn” value (corn (Zea mays); [12]) was 20 and the “Plant response rating, Corn” value (corn (Zea mays); [13]) was 0. The “Plant response rating, Corn” value (corn (Zea mays); [14]) was 20, the “Barnyardgrass plant response rating” value [1, 17] was 20 and the “Plant response rating, Barnyardgrass” value [1, 12] was 60. The “Plant response rating, Barnyardgrass” value [1, 13] was 0, the “Plant response rating, Barnyardgrass” value [1, 14] was 70 and the “Pigweed plant response rating” value [2, 17] was 50. For the same compound, the “Plant response rating, Pigweed” value [2, 12] was 70, the “Plant response rating, Pigweed” value [2, 13] was 30 and the “Plant response rating, Pigweed” value [2, 14] was 50. For the same compound, the “Wheat plant response rating” value [3, 17] was 0, the “Plant response rating, Wheat” value [3, 12] was 10 and the “Plant response rating, Wheat” value [3, 13] was 0. The “Plant response rating, Wheat” value [3, 14] was 0, the “Morningglory plant response rating” value [4, 17] was 10 and the “Plant response rating, Morningglory” value [4, 12] was 20. For the same compound, the “Plant response rating, Morningglory” value [4, 13] was 0, the “Plant response rating, Morningglory” value [4, 14] was 0 and the “Velvetleaf plant response rating” value [5, 17] was 70. The “Plant response rating, Velvetleaf” value [5, 12] was 100, the “Plant response rating, Velvetleaf” value [5, 13] was 0 and the “Plant response rating, Velvetleaf” value [5, 14] was 40. For the same compound, the “Crabgrass, Large plant response rating” value [6, 17] was 10, the “Plant response rating, Crabgrass, Large” value [6, 12] was 40 and the “Plant response rating, Crabgrass, Large” value [6, 13] was 40. For the same compound, the “Plant response rating, Crabgrass, Large” value [6, 14] was 70, the “Foxtail, Giant plant response rating” value [7, 17] was 30 and the “Plant response rating, Foxtail, Giant” value [7, 12] was 70. For the same compound, the “Plant response rating, Foxtail, Giant” value [7, 13] was 30, the “Plant response rating, Foxtail, Giant” value [7, 14] was 70 and the “Plant response rating, Flood, Rice” value (rice (Oryza sativa)) was 10. For the same compound, the “Plant response rating, Rice” value (rice (Oryza sativa); [18]) was 0, the “Plant response rating, Rice” value (rice (Oryza sativa); [19]) was 0 and the “Plant response rating, Rice” value (rice (Oryza sativa); [16]) was 0. For the same compound, the “Plant response rating, Flood, Ducksalad” value [8] was 75, the “Plant response rating, Ducksalad” value [8, 18] was 0 and the “Plant response rating, Ducksalad” value [8, 19] was 40. For the same compound, the “Plant response rating, Ducksalad” value [8, 16] was 75, the “Plant response rating, Flood, Barnyardgrass” value [9] was 10 and the “Plant response rating, Barnyardgrass” value [9, 18] was 0. The “Plant response rating, Barnyardgrass” value [9, 19] was 0, the “Plant response rating, Barnyardgrass” value [9, 16] was 0 and the “Plant response rating, Flood, Sedge, Umbrella” value [10] was 50. The “Plant response rating, Sedge, Umbrella” value [10, 18] was 0, the “Plant response rating, Sedge, Umbrella” value [10, 19] was 0 and the “Plant response rating, Sedge, Umbrella” value [10, 16] was 40.

In the case of `CCn1c(Cc2ccccc2)ncc(C(=O)C2=C(O)CCCC2=O)c1=O` [Compound 200], the “Plant response rating, Corn” value (corn (Zea mays); [11]) is reported as 0, the “Corn plant response rating” value (corn (Zea mays); [20]) is reported as 0 and the “Plant response rating, Corn” value (corn (Zea mays); [13]) is reported as 0. For the same compound, the “Plant response rating, Corn” value (corn (Zea mays); [21]) was 0, the “Plant response rating, Barnyardgrass” value [1, 11] was 0 and the “Barnyardgrass plant response rating” value [1, 20] was 10. The “Plant response rating, Barnyardgrass” value [1, 13] was 0, the “Plant response rating, Barnyardgrass” value [1, 21] was 0 and the “Plant response rating, Pigweed” value [2, 11] was 60. The “Pigweed plant response rating” value [2, 20] was 80, the “Plant response rating, Pigweed” value [2, 13] was 0 and the “Plant response rating, Pigweed” value [2, 21] was 20. The “Plant response rating, Wheat” value [3, 11] was 0, the “Wheat plant response rating” value [3, 20] was 0 and the “Plant response rating, Wheat” value [3, 13] was 0. The “Plant response rating, Wheat” value [3, 21] was 0, the “Plant response rating, Morningglory” value [4, 11] was 50 and the “Morningglory plant response rating” value [4, 20] was 60. For the same compound, the “Plant response rating, Morningglory” value [4, 13] was 0, the “Plant response rating, Velvetleaf” value [5, 11] was 100 and the “Velvetleaf plant response rating” value [5, 20] was 100. The “Plant response rating, Velvetleaf” value [5, 13] was 0, the “Plant response rating, Velvetleaf” value [5, 21] was 60 and the “Plant response rating, Crabgrass, Large” value [6, 11] was 10. For the same compound, the “Crabgrass, Large plant response rating” value [6, 20] was 10, the “Plant response rating, Crabgrass, Large” value [6, 13] was 0 and the “Plant response rating, Crabgrass, Large” value [6, 21] was 0. The “Plant response rating, Foxtail, Giant” value [7, 11] was 0, the “Foxtail, Giant plant response rating” value [7, 20] was 10 and the “Plant response rating, Foxtail, Giant” value [7, 13] was 0. The “Plant response rating, Foxtail, Giant” value [7, 21] was 0, the “Plant response rating, Flood, Rice” value (rice (Oryza sativa)) was 23 and the “Plant response rating, Rice” value (rice (Oryza sativa); [15]) was 0. The “Plant response rating, Rice” value (rice (Oryza sativa); [16]) was 10, the “Rice plant response rating” value (rice (Oryza sativa); 31 g ai/ha) was 0 and the “Plant response rating, Flood, Ducksalad” value [8] was 85. For the same compound, the “Plant response rating, Ducksalad” value [8, 15] was 83, the “Plant response rating, Ducksalad” value [8, 16] was 85 and the “Ducksalad plant response rating” value ([8]; 31 g ai/ha) was 38. For the same compound, the “Plant response rating, Flood, Barnyardgrass” value [9] was 38, the “Plant response rating, Barnyardgrass” value [9, 15] was 0 and the “Plant response rating, Barnyardgrass” value [9, 16] was 23. For the same compound, the “Barnyardgrass plant response rating” value ([9]; 31 g ai/ha) was 0, the “Plant response rating, Flood, Sedge, Umbrella” value [10] was 70 and the “Plant response rating, Sedge, Umbrella” value [10, 15] was 33. For the same compound, the “Plant response rating, Sedge, Umbrella” value [10, 16] was 43 and the “Sedge, Umbrella plant response rating” value ([10]; 31 g ai/ha) was 30.

Source: patent US8952024B2, “Herbicidal pyrimidone derivatives” (E I du Pont de Nemours and Company, priority 2009, dated 2015)
